Measured values taken from patent US7358057B2, “QM-7 and QT-6 cells transfected with mutant cell surface expressed channel receptors and assays using the transfected cells” (Memory Pharmaceuticals Corporation, priority 2002, dated 2008).
Where two headings read alike, the source gives them in different places. Blank lines part the entries; values can stand above or below the compound they belong to.

Legend:
L270T mutant α7 receptor = molecular target: T1, L270T mutant α7 receptor (Homo sapiens, UniProt P36544, L270T); assay: Real time, high throughput Ca++ imaging assay using FLIPR, QM-7 cells transiently transfected with L270T mutant α7; format: cell-based
T1 construct: expressed in transfected cells; host or cells: QM-7 cells (quail), transient transfection with Lipofectamine PLUS
Method: (§1) QM-7 cells were transiently transfected with either wild type or L 270T mutant α7 receptor with Lipofectamine PLUS reagent (Invitrogen), in 175 cm^2 flasks. Twenty four hours after the transfection, the cells were collected and re-seeded into a 96-well plate at a density of 40,000 cells/well. Twenty four hours after re-seeding, the cell were incubated with Ca^++ sensitive dye Fluo 3, washed and stimulated with the selective alpha 7 agonist GTS-21. Cellular Ca^++ signal was detected with FLIPR, quantified and plotted against the concentration of GTS-21.

wild type α7 receptor = molecular target: T2, wild type α7 receptor (Homo sapiens, UniProt P36544); assay: Real time, high throughput Ca++ imaging assay using FLIPR, QM-7 cells transiently transfected with wild type α7; format: cell-based; conditions: QM-7 cells transiently transfected with wild type human α7, Fluo 3 dye, FIG. 1
T2 construct: expressed in transfected cells; host or cells: QM-7 cells (quail), transient transfection with Lipofectamine PLUS
Method: as §1

[1] = QM-7 cells transiently transfected with human L270T α7, Fluo 3 dye, FLIPR, FIG. 1

T1 sequence (P36544 23-502 L270T): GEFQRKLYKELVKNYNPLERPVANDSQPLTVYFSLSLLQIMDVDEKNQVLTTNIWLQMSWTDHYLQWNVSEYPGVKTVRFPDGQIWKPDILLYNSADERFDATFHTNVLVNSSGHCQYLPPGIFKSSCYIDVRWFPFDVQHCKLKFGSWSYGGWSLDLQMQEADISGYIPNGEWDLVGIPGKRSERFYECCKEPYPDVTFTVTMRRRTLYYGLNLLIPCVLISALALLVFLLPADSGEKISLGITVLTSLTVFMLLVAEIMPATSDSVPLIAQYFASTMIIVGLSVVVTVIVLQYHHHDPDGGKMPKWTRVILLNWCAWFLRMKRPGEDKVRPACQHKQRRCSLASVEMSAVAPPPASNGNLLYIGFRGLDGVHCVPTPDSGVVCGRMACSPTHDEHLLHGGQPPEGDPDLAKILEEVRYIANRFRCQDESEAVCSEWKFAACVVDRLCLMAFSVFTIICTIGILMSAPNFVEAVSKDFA
T2 sequence (P36544 23-502): as the sequence (P36544 23-502 L270T) above, with T248L counted along it

Cellular Ca++ signal on stimulation (L270T mutant α7 receptor; [1]): dose-dependent increase of Ca^++ signal
Concentration at which the Ca++ signal saturated (L270T mutant α7 receptor; [1]): 10 µM
Cellular Ca++ signal on stimulation (wild type α7 receptor): failed to give a meaningful signal
Structure (SMILES): COc1ccc(/C=C2\CCCN=C2c2cccnc2)c(OC)c1 [GTS-21]

Structure (SMILES): CCN1C[C@]2(COC(=O)c3ccccc3N3C(=O)C[C@H](C)C3=O)CC[C@H](OC)[C@@]34[C@@H]5C[C@H]6[C@H](OC)[C@@H]5[C@](O)(C[C@@H]6OC)[C@@](O)([C@@H](OC)[C@H]23)[C@@H]14 [MLA, Methyllycaconitine]
Attenuation of signals from epibatidine stimulation (L270T mutant α7 receptor): attenuated

Structure (SMILES): Clc1ccc(C2CC3CCC2N3)cn1 (stereo not drawn) [epibatidine]
Responsiveness of cells to agonist (Ca++ signal) (L270T mutant α7 receptor; QM-7 cells transiently transfected with the mutant): responsive

Structure (SMILES): CN1CCCC1c1cccnc1 (stereo not drawn) [nicotine]
Responsiveness of cells to agonist (Ca++ signal) (L270T mutant α7 receptor): responsive
